Assay results: ChEMBL document CHEMBL4184293, “Structure-based design and biological evaluation of inhibitors of the pseudomonas aeruginosa heme oxygenase (pa-HemO)” (Bioorg Med Chem Lett, 2018)
The source made the active and inactive calls. The rule behind the calls is not given here.

Tests used:
[1] = target: T1, Heme oxygenase (Pseudomonas aeruginosa, UniProt O69002); experiment: Binding affinity to Pseudomonas aeruginosa HemO by intrinsic fluorescence quenching assay
T1 sequence (O69002 whole entry): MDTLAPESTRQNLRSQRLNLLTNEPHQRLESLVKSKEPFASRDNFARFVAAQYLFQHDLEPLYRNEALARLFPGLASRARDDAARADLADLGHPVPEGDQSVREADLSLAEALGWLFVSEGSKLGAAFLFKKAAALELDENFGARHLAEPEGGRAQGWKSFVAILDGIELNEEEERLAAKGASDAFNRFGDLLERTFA

[2] = test system: Pseudomonas aeruginosa; experiment: Antibiofilm activity against Pseudomonas aeruginosa PAO1 after 24 hrs by crystal violet staining based assay; format: functional
[3] = test system: Pseudomonas aeruginosa; experiment: Antibacterial activity against Pseudomonas aeruginosa PAO1 after 4 hrs in presence of heme or FeCl3; format: functional
[4] = target: T2, Heme oxygenase (Pseudomonas aeruginosa) (UniProt O69002); experiment: Binding affinity to Pseudomonas aeruginosa HemO assessed as chemical shift perturbations after 2 hrs by 15N-1H TROSY HSQC NMR method
T2 sequence (whole entry): T1 sequence (O69002 whole entry)

[5] = target: T2, Heme oxygenase (Pseudomonas aeruginosa); experiment: Binding affinity to Pseudomonas aeruginosa HemO by STD-NMR method

O=C(O)CCN1C(=O)/C(=C/c2ccccn2)SC1=S
Kd [1]: 51 µM

COC(=O)c1ccc(-c2ccc(C=C3SC(=S)N(CCC(=O)O)C3=O)o2)cc1
Kd [1]: 28 µM

COC(=O)c1cccc(-c2ccc(C=C3SC(=S)N(CCC(=O)O)C3=O)o2)c1
Kd [1]: 7.6 µM

CC(C)c1ccc(/C=C2\SC(=S)N(CCC(=O)O)C2=O)cc1
Kd [1]: 10 µM

O=C(O)CCN1C(=O)/C(=C/c2ccco2)SC1=S
Kd [1]: 38 µM

O=C(O)CCN1C(=O)/C(=C/c2ccc(Cc3ccccc3)cc2)SC1=S
Kd [1]: 7 µM

NCCN1C(=O)/C(=C/c2ccc(-c3ccccc3)cc2)SC1=S
MBEC99.9 [2]: >300 µg/mL | Kd [1]: 43 µM | MIC50 ([3]; PAO1, 4 h): > 300 µg/mL

N#Cc1cccc(-c2ccc(C=C3SC(=S)N(CCC(=O)O)C3=O)o2)c1
Kd [1]: 13 µM

O=C(O)CCN1C(=O)/C(=C/c2ccc(F)cc2)SC1=S
Kd [1]: 44 µM

O=C(O)CCN1C(=O)/C(=C/c2c[nH]c3ccccc23)SC1=S
Kd [1]: 6.4 µM

CN(C)CCN1C(=O)C(=Cc2ccc(-c3ccccc3)cc2)SC1=S
MBEC99.9 [2]: >300 µg/mL | Kd [1]: 18 µM | MIC50 [3]: inactive

O=C1NC(=S)SC1=Cc1ccc(-c2ccccc2)cc1
MBEC99.9 [2]: >300 µg/mL | Kd [1]: 2.3 µM | MIC50 [3]: inactive

COc1ccc(/C=C2\SC(=S)N(CCC(=O)O)C2=O)cc1
Kd [1]: 23 µM

O=C(O)CCN1C(=O)/C(=C/c2ccc(Oc3ccccc3)cc2)SC1=S
Kd [1]: 6.5 µM

O=C(O)CCN1C(=O)/C(=C/c2ccc(O)c(O)c2)SC1=S
Kd [1]: 57 µM

O=C(O)CCN1C(=O)C(=Cc2cccc(-c3ccccc3)c2)SC1=S
Kd [1]: 20 µM

COc1cccc(/C=C2\SC(=S)N(CCC(=O)O)C2=O)c1
Kd [1]: 25 µM

O=C(O)CCN1C(=O)C(=Cc2cccc3ccccc23)SC1=S
Kd [1]: 13 µM

O=C1/C(=C/c2ccco2)SC(=S)N1CCc1nn[nH]n1
Kd [1]: 26 µM

COC(=O)c1cc(-c2ccc(C=C3SC(=S)N(CCC(=O)O)C3=O)o2)ccc1N
Kd [1]: 6.5 µM

O=C(O)CCN1C(=O)/C(=C/c2ccc(Cl)c(Cl)c2)SC1=S
Kd [1]: 14 µM

O=C(O)CCN1C(=O)/C(=C/c2cccc(Nc3ccccc3)c2)SC1=S
MBEC99.9 [2]: >300 µg/mL | Activity [4]: Active | Kd [1]: 1.2 µM | MIC50 ([3]; PAO1, 4 h): > 300 µg/mL

O=C(O)CCN1C(=O)C(=Cc2ccc(-c3cccc(O)c3)o2)SC1=S
MBEC99.9 [2]: >300 µg/mL | Activity [4]: Active | Kd [1]: 1.1 µM | MIC50 ([3]; PAO1, 4 h): > 300 µg/mL

O=C(O)CCN1C(=O)/C(=C/c2ccc(Cl)cc2)SC1=S
Kd [1]: 15 µM

O=C1/C(=C/c2ccc(O)c(O)c2)SC(=S)N1CCc1nnn[nH]1
Kd [1]: 45 µM

O=C(O)CCN1C(=O)/C(=C/c2cn(Cc3ccccc3)c3ccccc23)SC1=S
Kd [1]: 7.4 µM

O=C(O)CCN1C(=O)C(=Cc2ccc3ccccc3c2)SC1=S
Kd [1]: 3.9 µM

O=C(O)CCN1C(=O)C(=Cc2ccc(-c3ccccc3)cc2)SC1=S
MBEC99.9 [2]: >300 µg/mL | Activity [4]: Active | Kd [1]: 3.3 µM | MIC50 ([3]; PAO1, 4 h): > 300 µg/mL

O=C1Nc2ccc(Cl)cc2/C1=C\c1ccc(-c2ccccc2)cc1
MBEC99.9 [2]: >300 µg/mL | Kd [1]: 5.2 µM | MIC50 [3]: inactive

O=C1/C(=C/c2ccccn2)SC(=S)N1CCc1nnn[nH]1
Activity [5]: Active | Activity [4]: Active | Kd [1]: 27 µM
